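Step 1: Grow cells in 96-well plates. Step 2: Expose to compound for 48 hours at 5 concentrations. Step 3: Interpolate endpoints linearly; if unreached, use highest concentration. At the GI50, growth is halved. Definition used: TGI = concentration required for complete inhibition of growth.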
How the values were obtained:
Assay in all cases: inhibition of tumour cell growth, NCI panel, 48 h
[1] = test system: K-562 leukemia
[2] = test system: UACC-62 melanoma
[3] = test system: OVCAR-4 ovarian
[4] = test system: SK-MEL-5 melanoma
[5] = test system: CCRF-CEM leukemia
[6] = test system: SR leukemia
[7] = test system: OVCAR-3 ovarian
[8] = test system: CAKI-1 renal
[9] = test system: HOP-62 NSCLC
[10] = test system: NCI-H23 lung

Structure (SMILES) | TGI [1] [µM] | TGI [2] [µM] | TGI [3] [µM] | TGI [4] [µM] | TGI [5] [µM] | TGI [6] [µM] | TGI [7] [µM] | TGI [8] [µM] | TGI [9] [µM] | TGI [10] [µM] | GI50 [1] [µM] | GI50 [2] [µM] | GI50 [3] [µM] | GI50 [4] [µM] | GI50 [5] [µM] | GI50 [6] [µM] | GI50 [7] [µM] | GI50 [8] [µM] | GI50 [9] [µM] | GI50 [10] [µM]
Cc1cccc(NC(=O)C(=O)Cc2nc3ccccc3[nH]c2=O)c1C | > 100 | > 100 | > 100 | > 100 | > 100 | > 100 | > 100 | > 100 | > 100 | > 100 | – | – | – | – | – | – | – | – | – | –
O=C(Nc1ccc(Cl)cc1)c1cc(-c2ccc(F)cc2)c2sc(=O)[nH]c2n1 | 10.9 | 2.32 | 9.12 | 2.13 | 9.9 | 10.5 | 11.4 | 4.99 | 5.69 | 5.79 | 0.581 | 0.366 | 1.99 | 0.493 | 0.657 | 0.672 | 0.944 | 2.15 | 2.04 | 1.19
CC(C)c1ccc(C(=O)Nc2sc3c(c2C(N)=O)CCC(=O)C3)cc1 | 3.83 | 1.91 | 1.2 | 2.56 | 4.27 | 11 | 1.51 | 1.55 | 18.1 | 2.45 | 0.207 | 0.46 | 0.329 | 1.14 | 0.215 | 0.413 | 0.421 | 0.334 | 3.04 | 0.381
COC(=O)c1cccc2cccc(C(=O)Nc3ccc(C)cc3C)c12 | > 100 | > 100 | > 100 | > 100 | > 100 | > 100 | > 100 | > 100 | > 100 | > 100 | – | – | – | – | – | – | – | – | – | –
CC(=O)OC1CC(O)C23COC(O)C1(C)C2CC(O)C1(C)C3C(=O)C(O)C2(C)C(c3ccoc3)CC3OC321 (stereo unspecified) | – | < 0.0129 | > 100 | – | > 100 | 0.0544 | > 100 | > 100 | > 100 | > 100 | < 0.01 | < 0.01 | – | < 0.01 | < 0.0162 | < 0.01 | 41.2 | 2.97 | 0.685 | –
COC(=O)c1cc(Br)c(Br)n1C | > 100 | > 100 | > 100 | > 100 | > 100 | > 100 | > 100 | > 100 | > 100 | > 100 | – | – | – | – | – | – | – | – | – | –
CCC#CC[C@H]1C/C=C2/C(=O)C=C[C@@H]2C/C=C\CCCC(=O)O1 | 4.44 | 1.8 | 7.94 | 1.71 | 5 | 4.26 | 3.31 | 2.1 | 3.26 | 2.03 | 0.661 | 0.559 | 1.5 | 0.854 | 0.791 | 0.328 | 0.568 | 0.935 | 1.02 | 0.873
CC1=C2C(=O)O[C@@H](c3ccoc3)[C@]2(C)CCC1 | > 100 | > 100 | > 100 | > 100 | > 100 | > 100 | > 100 | > 100 | > 100 | > 100 | – | – | – | – | – | – | – | – | – | –
CC12CCCC(O)C1CCC1=CC3(CCC12)SCCS3 (stereo unspecified) | > 10 | > 10 | > 10 | > 10 | > 10 | > 10 | > 10 | > 10 | > 10 | > 10 | – | – | – | – | – | – | – | – | – | –
COc1ccc2c(c1)CCC1C3(CCCC21C)OCCO3 (stereo unspecified) | 42.1 | 38 | > 100 | 31.1 | 40.6 | 45.4 | 35.5 | > 100 | 28.4 | 34.2 | – | – | – | – | – | – | – | – | – | –
COC(=O)Nc1nc2ccc(Oc3ccc(NC(=O)Nc4ccccc4)cc3)cc2[nH]1 | > 9.63 | 4.5 | 5.68 | 1.18 | > 8.59 | > 8.46 | 0.205 | > 21.7 | 2.52 | > 12.3 | 0.105 | 0.0933 | 0.207 | 0.0702 | 0.123 | 0.0744 | 0.0713 | 3.4 | 0.109 | 0.545
O=C(N/N=C/c1cccc(O)c1O)c1ccccc1 | > 100 | 5.32 | > 29.5 | > 22.7 | > 59.7 | > 76 | > 100 | 16.5 | > 100 | > 100 | 1.29 | 0.902 | 0.312 | 0.626 | 0.244 | 0.412 | 0.369 | 0.519 | 1.52 | 0.992
CCOC(=O)Sc1ncnc2nc[nH]c12 | > 100 | > 100 | > 100 | > 100 | 13.4 | 6.35 | > 100 | 6.31 | > 100 | > 100 | 0.312 | 1.37 | 0.491 | 5.96 | 0.629 | 0.358 | 0.474 | 0.579 | 0.808 | 3.93
CCc1[nH]c(=O)nc(N)c1-c1ccc(N2CCCCC2)c([N+](=O)[O-])c1 | > 100 | > 100 | > 100 | > 100 | > 100 | > 100 | > 100 | > 100 | > 100 | > 100 | – | – | – | – | – | – | – | – | – | –
COc1cc(C2=NN(C(C)=O)C(c3ccc(OC(C)=O)cc3OC(C)=O)O2)c(OC(C)=O)c2ccccc12 (stereo unspecified) | > 91.2 | 9.67 | 8.64 | 7.54 | 8.03 | > 27.4 | 13.9 | > 21.1 | 14.6 | > 78.9 | 0.872 | 0.897 | 0.306 | 0.984 | 0.338 | 0.537 | 0.402 | 0.465 | 0.565 | 2.55
CC(=O)OC1Oc2ccccc2-c2oc(=O)c(-c3cc4ccc(N(C)C)cc4oc3=O)cc21 (stereo unspecified) | > 100 | 29.5 | 24 | 15.4 | 24.2 | 14.5 | 23.2 | > 100 | 25.4 | 23.7 | 2.98 | 14.3 | 1.29 | 3.46 | 2.89 | 1.75 | 10.1 | 14.9 | 4.63 | 10.6

Structure (SMILES) | TGI [1] [µM] | TGI [2] [µM] | TGI [3] [µM] | TGI [4] [µM] | TGI [5] [µM] | TGI [6] [µM] | TGI [7] [µM] | TGI [8] [µM] | TGI [9] [µM] | TGI [10] [µM] | GI50 [1] [µM] | GI50 [2] [µM] | GI50 [3] [µM] | GI50 [4] [µM] | GI50 [5] [µM] | GI50 [6] [µM] | GI50 [7] [µM] | GI50 [8] [µM] | GI50 [9] [µM] | GI50 [10] [µM]
COc1ccc(C(C)c2cc3c(cc2OC)OCO3)cc1 (stereo unspecified) | > 57.6 | > 69.2 | > 100 | 2.31 | > 66.2 | > 5.04 | 0.598 | > 100 | > 46.2 | > 21.5 | – | – | – | – | – | – | – | – | – | –
O=C(c1cccc(O)c1O)c1cn(Cc2ccc(F)cc2)c2cccc(O)c12 | > 37.7 | 14.6 | 16.2 | 4.97 | 6.44 | 7.81 | 18.1 | 18.5 | 19.5 | 19.8 | 3.56 | 4.27 | 3.13 | 1.73 | 0.861 | 0.867 | 3.27 | 4.13 | 5.41 | 4.12
CCN(CC)c1ccc(C(=N)c2ccc(N(CC)CC)cc2)cc1 | 1.67 | 2.24 | 15.9 | 1.24 | 9.3 | 1.2 | 0.995 | 5.85 | 2.6 | 0.925 | 0.255 | 0.621 | 1.55 | 0.342 | 0.741 | 0.28 | 0.27 | 0.588 | 0.831 | 0.26
CCCCCCCCCCCCCC1CCC(CC)N1 (stereo unspecified) | 33.3 | 17.1 | 31.2 | 31.8 | 18.2 | 40.6 | 30.2 | 29.6 | 17.9 | 32.9 | – | – | – | – | – | – | – | – | – | –
N.N.N.N.N.O=C([O-])c1nn[n-]n1.[Cl-].[Co+3] | > 100 | > 100 | > 100 | > 100 | > 100 | > 100 | > 100 | > 100 | > 100 | > 100 | > 100 | > 100 | > 100 | > 100 | > 100 | > 100 | > 100 | > 100 | > 100 | > 100
Cc1ccc(/C(=C/C=C(C#N)C#N)Sc2ccc(Cl)cc2)cc1 | 18.4 | 23.1 | > 100 | 25.9 | 17.4 | 6.14 | 9.34 | 5.3 | 15.6 | 23.4 | 3.34 | 5.3 | 11.3 | 12 | 2.41 | 2.32 | 2.31 | 2.03 | 6.4 | 9.54
COc1cc2oc(-c3ccc(O)cc3)cc(=O)c2c(OC)c1OC | > 100 | > 100 | > 100 | > 100 | > 100 | > 100 | > 100 | > 100 | > 100 | > 100 | – | – | – | – | – | – | – | – | – | –
CCOC(=O)c1c(CN2CCN(c3ccccc3)CC2)n(-c2ccccc2)c2cc(Br)c(O)cc12 | > 100 | 29.6 | 24.6 | 23.1 | > 100 | > 100 | 32.1 | 36.9 | 33.4 | 38.3 | 6.32 | 16.1 | 8.63 | 8.82 | 0.0602 | 3.82 | 13 | 15.3 | 17.2 | 14.9
CC/C=C\C[C@@H]1C/C=C2/C(=O)C=C[C@H]2C/C=C\CCCC(=O)O1 | 0.724 | 2.66 | 2.38 | 1.43 | 1.58 | 0.731 | 1.38 | 1.77 | 3.68 | 3.2 | 0.239 | 0.735 | 1.04 | 0.348 | 0.24 | 0.17 | 0.428 | 0.42 | 1.07 | 0.993
CCS(=O)(=O)c1ccc(OC)c(Nc2ncc(-c3cccc(OC)c3)o2)c1 | > 25 | > 25 | > 25 | > 25 | > 25 | 24.3 | > 25 | > 25 | > 25 | > 25 | 4.34 | 9.52 | 13.5 | 10 | 10.7 | 9.33 | 9.92 | 8.58 | 9.41 | 8.3
CN/N=C(/CCN1CCCC1)CC(c1ccccc1)c1c(O)c2ccccc2oc1=O (stereo unspecified) | > 100 | > 100 | > 100 | > 100 | > 100 | > 100 | > 100 | > 100 | > 100 | > 100 | – | – | – | – | – | – | – | – | – | –
COc1c2c(cc3nc4ccccc4nc13)CCC(C(C)(C)O)C2 (stereo unspecified) | > 100 | > 100 | > 100 | > 100 | > 100 | > 100 | > 100 | > 100 | > 100 | > 100 | – | – | – | – | – | – | – | – | – | –
Cn1cc(C(=O)c2ccccc2)ccc1=O | > 100 | > 100 | > 100 | > 100 | > 100 | > 100 | > 100 | > 100 | > 100 | > 100 | – | – | – | – | – | – | – | – | – | –
Nc1ccc(/C=C/c2ccnc3ccccc23)cc1 | 44 | 56.9 | > 100 | 29.6 | 40.7 | 32.4 | 48.7 | 63.9 | 41.5 | 50.1 | – | – | – | – | – | – | – | – | – | –
CCN(CC)c1sc(N(CC)CC)c2c1SSSSS2 | > 100 | 1.87 | 2.46 | 1.95 | 1.24 | 0.998 | 3.39 | 3.78 | 4.99 | 0.674 | 1.64 | 0.721 | 0.697 | 0.851 | 0.359 | 0.267 | 1.44 | 1.49 | 2.61 | 0.255

From PubChem BioAssay (NCI)
